System: endothelial nitric oxide synthase
Assay: Screen for endothelial nitric oxide synthase inhibiting activity
Format: biochemical, human
Conditions: reference standard at 1 μM; endothelial enzyme from HUVECs

- inhibition of nitric oxide synthetase: 70-90%
SMILES: N=C(NCCC[C@H](N)C(=O)O)N[N+](=O)[O-] [N-nitro-L-arginine]
